Like-named read-outs stand apart in the source and are kept apart here.
Tests used:
L 1210 leukemia = assay: Test 1: antitumoral properties on L 1210 leukemia (Table I); assay type: in vivo, mouse
Procedure: The lower animal antitumoral properties of the compounds according to the invention have been determined by their curative action on inoculated test L-1210 leukemia. [ZUBROD C. G., Proc. Nat. Acad. Sci. 1972, 69, 1042-1047 and SCHEPARTZ SA. SCREENING, 1971, CANCER Chemother. Rep. Part 3 vol.2 p.3].
This leukemia is maintained in ascitic form by passage (i.p. route) on CBDl (C57 B16×DBA/2)F1 mice. The preparation to be tested are injected by the intraperitoneal route at least one day after the inoculation of the cells (one injection only). The results are expressed in increased life span per cent (ILS %) according to KESSEL et al. Cancer Res. 1971, 31, 1883-1887) or in percentage of the number of cells killed by the product (the survival of the animals is proportional to the number of cells injected).
The following tests were made in groups of 10 mice, unless stipulated to the contrary.
Test 1: Study of the antitumoral properties of the compounds of the invention on L 1210 leukemia
The lower animal antitumoral properties of the compounds according to the invention were determined by their curative action on test inoculated L 1210 leukemia.
This leukemia was maintained on CBD 1 (C 57 B 16×DBA/2) F1 mice. The compounds to be tested were injected by the IP route one or more days after the inoculation of the cells (single injection). The results obtained, shown in table I hereinafter, are expressed in percentage of increase of life span (ILS %) and in percentage of the number of cells killed by the compound to be tested, the survival of the animals being proportional to the number of cells injected.
The percentage of the like span ILS % (Cancer. Res. 1971, 31, 1883-1887) is the following ratio: [formula] S^t =survival of the treated animals S^c =survival of the control animals

[1] = system: tumoral strain derived from the murine leukemia due to the C. FRIEND virus; assay: Test 7: antitumoral activity in vitro on Friend leukemia tumoral strain; assay type: cell-based; details: HUM = 1
Procedure: Test 7: Study of the antitumoral activity in vitro
This activity was measured on a tumoral strain derived from the murine leukemia due to the C. FRIEND virus.
The tumoral cells multiply in suspension in a "RPMI 1640" medium (Catalogue of GIBCO Bio-cult. Ltd. Washington Road, Sandyford Industrial Estate, PAISLEY PA 3 4EP, Renfrewshire, Scotland) supplemented with 20% of embryonary calf serum, penicillin and streptomycine. The duplication time of these cells is 11 hours. The growth fraction is equal to 1 or very close to 1 (all the cells are in the cycle). The cultures are sub-culturedat time t=0 at the concentration of 2.10^5 cells per ml in Falcon dishes containing 4 ml of medium. After twenty four hours, the product to be tested was added, i.e. at a moment when the cultures are in exponential phase of growth. Twenty four hours after the addition of the product, the cells are counted and the percentage of living cells determined by an exclusion test using "trypan" blue.

[2] = Test 8: acute toxicity in vivo, ICFW mice; details: mouse, read-out: LD 500
Procedure: (§1) Test 8: Acute toxicity in vivo
(§2) The products to be tested were injected by the IP route into groups of 10 mice at various dilutions. Each day, the number of dead animals is noted. If the doses are well chosen, a 100% lethal dose and a 50% lethal dose have been able to be defined for each product. This study is limited to two months. Two isogenic mouse strains were systematically used: C3H/He and ICFW.

ICFW mice = assay: Test 8: acute toxicity in vivo, ICFW mice; details: mouse, ip
Procedure: as §1, §2

[3] = system: chloromonocytary tumoral cells; assay: Test 9: action on chloromonocytary tumoral cells (chloroleukemia); assay type: in vivo, ICFW mouse
Procedure: Test 9: Action on chloromonocytary tumoral cells
In this test, the action of the products according to the invention on chloromonocytary tumoral cells was determined according to the chloroleukemia of the mouse test (ICFW mouse, co-sanguine CFW strain) isolated in Unit 22 (B. TAMBOURIN and F. WENDLING) of the "Institut National de la Sante et de la Recherche Medicale- Paris" (I.N.S.E.R.M.) in a mouse injected with a variant of the Friend virus.
The tumour kills all the animals injected in 19.3± 2 days. This tumour develops in semi-solid ascitic form; the peritoneum is invaded, both by solid tumoral masses and cells in suspension in the ascitic liquid. The tumour is transmitted by the cells of the suspension which produce the tumoral masses and the ascitic cells.

Friend leukemia virus = assay: Test 14: viro-induced Friend leukemia, compound 21 (Tables Xa, Xb); assay type: in vivo, mouse; parameters: MST: unit not given beside the values; details: for life span: Tables Xa and II
Procedure: Test 14: viro-induced leukemia: Friend leukemia
A- As in test 2 hereinabove, the Friend leukemia virus inoculum was obtained from leukemia spleen and diluted to contain 100 SD50 /0.2 ml (SD50 =spleen enlarging dose 50 percent). The product to be tested was compound 21 (obtained according to example 7). It was given by I.P. route as a single injection 1 day after virus inoculation. […]
B. The proceeding of test 2 was repeated by using the compound 21 i.e. 1-[(γ-diethylaminopropyl)amino]-5-methyl-dipyrido[4,3-b][3,4-f]indole obtained according to example 7.
This test was carried out with a single dose of compound 21 (20 mg/kg) and with various virus doses.

[4] = 10^3 cells, 0.01 mg/mouse (0.5 mg/kg), J+1
[5] = 10^3 cells, 0.1 mg/mouse (5 mg/kg), J+1
[6] = 10^4 cells, 0.1 mg/mouse (0.5 mg/kg) [sic], J+1
[7] = 10^4 cells, 0.1 mg/mouse (5 mg/kg), J+1
[8] = Table Xa, 5 mg/kg, 1 day after virus
[9] = Table Xb, 20 mg/kg J+1, virus 1/500 (1000 SD50)
[10] = Table Xb, 20 mg/kg J+1, virus 1/1000
[11] = Table Xb, 20 mg/kg J+1, virus 1/2000 (250 SD50)
[12] = experiment no 1, 10^3 cells, 50 mg/kg, J+2
[13] = experiment no 1, 10^4 cells, 50 mg/kg, J+2
[14] = experiment no 1, 10^5 cells, 50 mg/kg, J+2
[15] = experiment no 1, 10^6 cells, 50 mg/kg, J+2
[16] = experiment no 2, 10^4 cells, 50 mg/kg, J+1
[17] = experiment no 2, 10^5 cells, 50 mg/kg, J+1
[18] = experiment no 2, 10^6 cells, 50 mg/kg, J+1

CCN(CC)CCCNc1nccc2c(C)c3[nH]c4ccncc4c3cc12 [Example 7, 1-(γ-diethylaminopropyl)amino-5-methyl-dipyrido-[4,3-b][3,4-f] indole]
ILS % (L 1210 leukemia; [4]): 17.4%
Number of cells found (L 1210 leukemia; [4]): 80
Number of cells killed (L 1210 leukemia; [4]): 92%
ILS % (L 1210 leukemia; [5]): 23.2%
Number of cells found (L 1210 leukemia; [5]): 40
Number of cells killed (L 1210 leukemia; [5]): 96%
Surviving mice (L 1210 leukemia; [5]): 5/10
ILS % (L 1210 leukemia; 10^4 cells, 0.1 mg/mouse (0.5 mg/kg) [sic], IP, J+1): 33.3%
Number of cells found (L 1210 leukemia; [6]): 60
Number of cells killed (L 1210 leukemia; [6]): 99.94%
Surviving mice (L 1210 leukemia; [6]): 1/10
ILS % (L 1210 leukemia; 10^4 cells, 0.1 mg/mouse (5 mg/kg), IP, J+1): 11.5%
Number of cells found (L 1210 leukemia; [7]): 10^3
Number of cells killed (L 1210 leukemia; [7]): 90%
Activity (ratio of the LD50 of HUM to the LD50 of the product tested) [1]: 20
LD50 ([2]; ICFW, IP): 15 mg/kg
LD 100 (ICFW mice): 25 mg/kg
Mean survival time after treatment ([3]; 1 mg/kg 24 hours after inoculation, without treatment 18.9 ± 1.8 day): 29.0 ± 3.0 days
ILS % (Friend leukemia virus; [8]): 39%
MST (Friend leukemia virus; [8]): 44.5
Range of death (Friend leukemia virus; [8]): 27 to 52 days
ILS % (Friend leukemia virus; [9]): 40%
MST (Friend leukemia virus; [9]): 40.7
Range of death (Friend leukemia virus; [9]): 31-51
Survivors 4 months after inoculation (Friend leukemia virus; [9]): 0
ILS % (Friend leukemia virus; [10]): 82.7%
MST (Friend leukemia virus; [10]): 44.4
Range of death (Friend leukemia virus; [10]): 30-54
Survivors 4 months after inoculation (Friend leukemia virus; [10]): 0
ILS % (Friend leukemia virus; [11]): 64%
MST (Friend leukemia virus; [11]): 55.4
Range of death (Friend leukemia virus; [11]): 50-82
Survivors 4 months after inoculation (Friend leukemia virus; [11]): 2
life span (Friend leukemia virus): significant increase of the life span

Cc1c2ccncc2c(C)c2c1[nH]c1ccncc12 [Example 1, 5,11-dimethyl dipyrido [4,3-b][3,4-f] indole]
ILS % (L 1210 leukemia; [12]): 3%
Number of cells found (L 1210 leukemia; [12]): 800
Number of cells killed (L 1210 leukemia; [12]): 20%
Surviving mice (L 1210 leukemia; [12]): 1/10
ILS % (L 1210 leukemia; [13]): 14,78%
Number of cells found (L 1210 leukemia; [13]): 6,000
Number of cells killed (L 1210 leukemia; [13]): 40%
ILS % (L 1210 leukemia; [14]): 15,73%
Number of cells found (L 1210 leukemia; [14]): 40,000
Number of cells killed (L 1210 leukemia; [14]): 60%
Surviving mice (L 1210 leukemia; [14]): 0
ILS % (L 1210 leukemia; experiment no 1, 10^6 cells, 1 mg/mouse (50 mg/kg), IP, J+2): 34,32%
Number of cells found (L 1210 leukemia; [15]): 10^5
Number of cells killed (L 1210 leukemia; [15]): 90%
Surviving mice (L 1210 leukemia; [15]): 0
ILS % (L 1210 leukemia; [16]): 11,8%
Number of cells found (L 1210 leukemia; [16]): 5000
Number of cells killed (L 1210 leukemia; [16]): 50%
ILS % (L 1210 leukemia; [17]): 38,1%
Number of cells found (L 1210 leukemia; [17]): 2000
Number of cells killed (L 1210 leukemia; [17]): 98%
ILS % (L 1210 leukemia; experiment no 2, 10^6 cells, 1 mg/mouse (50 mg/kg), J+1): 47,3%
Number of cells found (L 1210 leukemia; [18]): 8000
Number of cells killed (L 1210 leukemia; [18]): 99%
ILS % (difference with the controls) (L 1210 leukemia; experiment no 3, 0,1 and 0,05 mg/mouse, 10^4 and 10^3 cells): no significant difference
Activity (ratio of the LD50 of HUM to the LD50 of the product tested) [1]: 3
LD50 ([2]; ip): 150 mg/kg
LD 100 (ICFW mice): 200 mg/kg
Mean survival time after treatment ([3]; 40 mg/kg 6 hours after inoculation, without treatment 18.5 ± 2 days): 25.3 ± 3.1 days
life span (Friend leukemia virus): significant increase of the life span

Source: patent US4444776A, “Dipyrido (4,3-B) (3,4-F) indoles, process for obtaining them, therapeutical use and pharmaceutical compositions” (priority 1977, dated 1984)
